Laboratory results reported in patent US20100317528A1, “HERBICIDE CONTAINING BENZOYLPYRAZOLE COMPOUND” (ISHIHARA SANGYO KAISHA, LTD., priority 2006, published 2010).

Legend:
Assay type in all cases: in vivo
[1] = tested on: barnyardgrass (Echinochloa crus-galli L.); experiment: Test Example 1: foliar treatment, upland pot test, barnyardgrass
Excerpt: (§1) Upland field soil was put into a 1/170,000 hectare pot, and seeds of various plants were sown. When the respective plants reached predetermined leaf stage ((1) barnyardgrass (Echinochloa crus-galli L.): 1.0 to 3.0 leaf stage, (2) crabgrass (Digitaria sanguinalis L.): 1.0 to 3.0 leaf stage, (3) green foxtail (Setaria viridis L.): 1.0 to 3.0 leaf stage, (4) redroot pigweed (Amaranthus retroflexus L.): cotyledon stage to 2.0 leaf stage, (5) prickly sida (Sida spinosa L.): cotyledon stage to 1.0 leaf stage, (6) velvetleaf (Abutilon theophrasti MEDIC.): 0.1 to 1.5 leaf stage, (7) rice (Oryza sativa L.): 1.0 to 3.0 leaf stage, (8) wheat (Triticum spp.): 1.7 to 3.4 leaf stage, (9) corn (Zea mays L.): 2.0 to 3.5 leaf stage, (10) soybean (Glycine max Merr.): primary leaf stage to 0.4 leaf stage), wettable powders or emulsifiable concentrates of the compounds of the above formula (I) prepared in accordance with a conventional preparation method, were weighed so that the active ingredients became the prescribed amounts, and diluted with water in an amount corresponding to 500 liter per 1 hectare (containing 0.1 vol % of “KUSARINOH”, manufactured by NIHON NOHYAKU CO., LTD. as an agricultural spreader). The spray solutions thus prepared were applied for foliar treatment by a small sprayer.
(§2) On the 17th to 25th day after application, the state of growth of the respective plants was visually observed, and the herbicidal effect was evaluated by a growth inhibition rate (%) of 0 (equivalent to the non-treated area) to 100% (complete kill).

[2] = tested on: crabgrass (Digitaria sanguinalis L.); experiment: Test Example 1: foliar treatment, upland pot test, crabgrass
Excerpt: as §1, §2

[3] = tested on: green foxtail (Setaria viridis L.); experiment: Test Example 1: foliar treatment, upland pot test, green foxtail
Excerpt: as §1, §2

[4] = tested on: velvetleaf (Abutilon theophrasti MEDIC.); experiment: Test Example 1: foliar treatment, upland pot test, velvetleaf
Excerpt: as §1, §2

rice (Oryza sativa L.) [5] = experiment: Test Example 1: foliar treatment, upland pot test, rice
Excerpt: as §1, §2

corn (Zea mays L.) [6] = experiment: Test Example 1: foliar treatment, upland pot test, corn
Excerpt: as §1, §2

[7] = tested on: soybean (Glycine max Merr.); experiment: Test Example 1: foliar treatment, upland pot test, soybean
Excerpt: as §1, §2

[8] = tested on: barnyardgrass (Echinochloa crus-galli L.); experiment: Test Example 2: soil application on the day after sowing, barnyardgrass; conditions: 250 g/ha active ingredient, observed 19th to 28th day after application
Excerpt: (§3) Upland field soil was put into a 1/170,000 hectare pot, and seeds of various plants barnyardgrass (Echinochloa crus-galli L.), crabgrass (Digitaria sanquinalis L.), green foxtail (Setaria viridis L.), redroot pigweed (Amaranthus retroflexus L.), prickly sida (Sida spinosa L.), velvetleaf (Abutilon theophrasti MEDIC.), rice (Oryza sativa L.), wheat (Triticum spp.), corn (Zea mays L.) and soybean (Glycine max Merr.)) were sown. On the day after sowing, wettable powders or emulsifiable concentrates of the compounds of the above formula (I) prepared in accordance with a conventional preparation method, were weighed so that the active ingredients became the prescribed amounts, and diluted with water in an amount corresponding to 500 liter per 1 hectare, followed by soil application with a small sprayer.
(§4) On the 19th to 28th day after the application, the state of growth of the respective plants was visually observed, and the herbicidal effect was evaluated by a growth inhibition rate (%) of from 0 (equivalent to the non-treated area) to 100% (complete kill).

[9] = tested on: crabgrass (Digitaria sanquinalis L.); experiment: Test Example 2: soil application on the day after sowing, crabgrass; conditions: 250 g/ha active ingredient, observed 19th to 28th day after application
Excerpt: as §3, §4

[10] = tested on: green foxtail (Setaria viridis L.); experiment: Test Example 2: soil application on the day after sowing, green foxtail; conditions: 250 g/ha active ingredient, observed 19th to 28th day after application
Excerpt: as §3, §4

[11] = tested on: prickly sida (Sida spinosa L.); experiment: Test Example 2: soil application on the day after sowing, prickly sida; conditions: 250 g/ha active ingredient, observed 19th to 28th day after application
Excerpt: as §3, §4

[12] = tested on: velvetleaf (Abutilon theophrasti MEDIC.); experiment: Test Example 2: soil application on the day after sowing, velvetleaf; conditions: 250 g/ha active ingredient, observed 19th to 28th day after application
Excerpt: as §3, §4

rice (Oryza sativa L.) [13] = experiment: Test Example 2: soil application on the day after sowing, rice; conditions: 250 g/ha active ingredient, observed 19th to 28th day after application
Excerpt: as §3, §4

corn (Zea mays L.) [14] = experiment: Test Example 2: soil application on the day after sowing, corn; conditions: 250 g/ha active ingredient, observed 19th to 28th day after application
Excerpt: as §3, §4

[15] = tested on: redroot pigweed (Amaranthus retroflexus L.); experiment: Test Example 1: foliar treatment, upland pot test, redroot pigweed; conditions: for Growth inhibition rate (%) Redroot pigweed: 31 g/ha active ingredient, observed 17th to 25th day after application
Excerpt: as §1, §2

[16] = tested on: prickly sida (Sida spinosa L.); experiment: Test Example 1: foliar treatment, upland pot test, prickly sida; conditions: for Growth inhibition rate (%) Prickly sida: 31 g/ha active ingredient, observed 17th to 25th day after application
Excerpt: as §1, §2

[17] = tested on: redroot pigweed (Amaranthus retroflexus L.); experiment: Test Example 2: soil application on the day after sowing, redroot pigweed; conditions: 250 g/ha active ingredient, observed 19th to 28th day after application
Excerpt: as §3, §4

[18] = tested on: soybean (Glycine max Merr.); experiment: Test Example 2: soil application on the day after sowing, soybean; conditions: 250 g/ha active ingredient, observed 19th to 28th day after application
Excerpt: as §3, §4

wheat (Triticum spp.) = experiment: Test Example 1: foliar treatment, upland pot test, wheat
Excerpt: as §1, §2

[19] = 31 g/ha active ingredient, observed 17th to 25th day after application

| SMILES | Growth inhibition rate (%) Barnyardgrass [1, 19] [%] | Growth inhibition rate (%) Crabgrass [2, 19] [%] | Growth inhibition rate (%) Green foxtail [3, 19] [%] | Growth inhibition rate (%) Redroot pigweed [15] [%] | Growth inhibition rate (%) Prickly sida [16] [%] | Growth inhibition rate (%) Velvetleaf [4, 19] [%] | Growth inhibition rate (%) Rice (rice (Oryza sativa L.) [5]; [19]) [%] | Growth inhibition rate (%) Corn (corn (Zea mays L.) [6]; [19]) [%] | Growth inhibition rate (%) Soybean [7, 19] [%] | Growth inhibition rate (%) Barnyardgrass [8] [%] | Growth inhibition rate (%) Crabgrass [9] [%] | Growth inhibition rate (%) Green foxtail [10] [%] | Growth inhibition rate (%) Redroot pigweed [17] [%] | Growth inhibition rate (%) Prickly sida [11] [%] | Growth inhibition rate (%) Velvetleaf [12] [%] | Growth inhibition rate (%) Rice (rice (Oryza sativa L.) [13]) [%] | Growth inhibition rate (%) Corn (corn (Zea mays L.) [14]) [%] | Growth inhibition rate (%) Soybean [18] [%] | also measured |
| --- | --- | --- | --- | --- | --- | --- | --- | --- | --- | --- | --- | --- | --- | --- | --- | --- | --- | --- | --- |
| Cc1c(C(=O)c2cnn(C)c2O)ccc(S(C)(=O)=O)c1CC1OCCO1 [compound 256] | – | – | – | – | – | – | – | – | – | – | – | – | – | – | – | – | – | – | inhibition at 31 g/ha ([1]; Echinochloa crus-galli, 31 g/ha active ingredient, observed 17th to 25th day after application, read-out: Growth inhibition rate (%) Barnyardgrass): 100%; inhibition at 31 g/ha ([2]; Digitaria sanguinalis, 31 g/ha active ingredient, observed 17th to 25th day after application, read-out: Growth inhibition rate (%) Crabgrass): 90%; inhibition at 31 g/ha ([3]; Setaria viridis, 31 g/ha active ingredient, observed 17th to 25th day after application, read-out: Growth inhibition rate (%) Green foxtail): 70%; inhibition at 31 g/ha ([4]; Abutilon theophrasti, 31 g/ha active ingredient, observed 17th to 25th day after application, read-out: Growth inhibition rate (%) Velvetleaf): 100%; inhibition at 31 g/ha (rice (Oryza sativa L.) [5]; Oryza sativa, 31 g/ha active ingredient, observed 17th to 25th day after application, read-out: Growth inhibition rate (%) Rice): 60%; inhibition at 31 g/ha (corn (Zea mays L.) [6]; Zea mays, 31 g/ha active ingredient, observed 17th to 25th day after application, read-out: Growth inhibition rate (%) Corn): 0%; inhibition at 31 g/ha ([7]; Glycine max, 31 g/ha active ingredient, observed 17th to 25th day after application, read-out: Growth inhibition rate (%) Soybean): 80%; inhibition at 250 g/ha ([8]; Echinochloa crus-galli, read-out: Growth inhibition rate (%) Barnyardgrass): 100%; inhibition at 250 g/ha ([9]; Digitaria, read-out: Growth inhibition rate (%) Crabgrass): 100%; inhibition at 250 g/ha ([10]; Setaria viridis, read-out: Growth inhibition rate (%) Green foxtail): 95%; inhibition at 250 g/ha ([11]; Sida spinosa, read-out: Growth inhibition rate (%) Prickly sida): 60%; inhibition at 250 g/ha ([12]; Abutilon theophrasti, read-out: Growth inhibition rate (%) Velvetleaf): 80%; inhibition at 250 g/ha (rice (Oryza sativa L.) [13]; Oryza sativa, read-out: Growth inhibition rate (%) Rice): 80%; inhibition at 250 g/ha (corn (Zea mays L.) [14]; Zea mays, read-out: Growth inhibition rate (%) Corn): 0% |
| COC(C)COc1c(S(C)(=O)=O)ccc(C(=O)c2cnn(C)c2O)c1C (stereo not shown) [compound 227] | 95 | 60 | 98 | 100 | 90 | 100 | 80 | 0 | 100 | 100 | 100 | 100 | 100 | 98 | 100 | 100 | 0 | 10 | – |
| COCC(C)Oc1c(S(C)(=O)=O)ccc(C(=O)c2cnn(C)c2O)c1C (stereo not shown) [compound 254] | 40 | 50 | 50 | 95 | 40 | 80 | 40 | 0 | 80 | 100 | 98 | 10 | 100 | 60 | 50 | 75 | 0 | 0 | Growth inhibition rate (%) Wheat (wheat (Triticum spp.); [19]): 0% |
| Cc1c(C(=O)c2cnn(C)c2O)ccc(S(C)(=O)=O)c1COC(C)C [compound 257] | 100 | 90 | 98 | 85 | 75 | 98 | 90 | 0 | 70 | 90 | 100 | 60 | 98 | 70 | 80 | 90 | 0 | 0 | – |
| CCn1ncc(C(=O)c2ccc(S(C)(=O)=O)c(OCC3OCCO3)c2Cl)c1O [compound 250] | – | – | – | – | – | – | – | – | – | – | – | – | – | – | – | – | – | – | inhibition at 63 g/ha ([1]; Echinochloa crus-galli, 63 g/ha active ingredient, observed 21st day after application, read-out: Growth inhibition rate (%) Barnyardgrass): 100%; inhibition at 63 g/ha ([2]; Digitaria sanguinalis, 63 g/ha active ingredient, observed 21st day after application, read-out: Growth inhibition rate (%) Crabgrass): 98%; inhibition at 63 g/ha ([3]; Setaria viridis, 63 g/ha active ingredient, observed 21st day after application, read-out: Growth inhibition rate (%) Green foxtail): 80%; inhibition at 63 g/ha ([15]; Amaranthus retroflexus, 63 g/ha active ingredient, observed 21st day after application, read-out: Growth inhibition rate (%) Redroot pigweed): 100%; inhibition at 63 g/ha ([16]; Sida spinosa, 63 g/ha active ingredient, observed 21st day after application, read-out: Growth inhibition rate (%) Prickly sida): 60%; inhibition at 63 g/ha ([4]; Abutilon theophrasti, 63 g/ha active ingredient, observed 21st day after application, read-out: Growth inhibition rate (%) Velvetleaf): 95%; inhibition at 63 g/ha (rice (Oryza sativa L.) [5]; Oryza sativa, 63 g/ha active ingredient, observed 21st day after application, read-out: Growth inhibition rate (%) Rice): 0%; inhibition at 63 g/ha (wheat (Triticum spp.); Triticum, 63 g/ha active ingredient, observed 21st day after application, read-out: Growth inhibition rate (%) Wheat): 0%; inhibition at 63 g/ha (corn (Zea mays L.) [6]; Zea mays, 63 g/ha active ingredient, observed 21st day after application, read-out: Growth inhibition rate (%) Corn): 10%; inhibition at 63 g/ha ([7]; Glycine max, 63 g/ha active ingredient, observed 21st day after application, read-out: Growth inhibition rate (%) Soybean): 90% |
| Cc1c(C(=O)c2cnn(C)c2O)ccc(S(C)(=O)=O)c1COCC(F)(F)F [compound 160] | 90 | 100 | 75 | 98 | 60 | 100 | 50 | 0 | 98 | 100 | 100 | 100 | 100 | 95 | 100 | 100 | 0 | 50 | – |
